Data reported in patent US20140179745A1, “TOPICAL OPHTHALMOLOGICAL PHARMACEUTICAL COMPOSITION CONTAINING REGORAFENIB” (Bayer Healthcare LLC, priority 2012, published 2014).

Assay: Thermodynamic solubility of regorafenib monohydrate in different solvents
Assay type: physicochemical
Conditions: thermodynamic from solid
Source text: Regorafenib monohydrate has a limited solubility profile.

- solubility (aqueous with cosolvent or surfactant or cyclodextrin, solvent HPβ-Cyclodextrin/water (10:90)): < 100 µg/mL
- solubility (oil or lipid, solvent Light liquid paraffin): < 100 µg/mL
- solubility (solvent Water): < 100 µg/mL
SMILES: CNC(=O)c1cc(Oc2ccc(NC(=O)Nc3ccc(Cl)c(C(F)(F)F)c3)c(F)c2)ccn1 [regorafenib monohydrate, 4-{4-[({[4-chloro-3-(trifluoromethyl)phenyl]amino}carbonyl)amino]-3-fluorophenoxy}-N-methylpyridine-2-carboxamide]
